# From patent publication US20090087420A1, “STABLE SOLUTION OF REDUCED COENZYME Q” (Kaneka Corporation, priority 2001, published 2009)
# Experiment: Oxidation stability of reduced coenzyme Q10 solubilized with a surfactant during air storage
# Type: physicochemical
# Details: for period of stable storage: 0.05% by weight reduced coenzyme Q10, air storage at 23° C. (FIG. 4)
# Description: A solution of reduced coenzyme Q10 using a surfactant was prepared by the method described below, and the oxidation stability under storage was evaluated. As the surfactant, Polysolvate 80 (Tween 80) or polyoxyethylene hardened castor oil (HCO 60) was used, and an aqueous solution of 1% by weight or 0.1% by weight of the surfactant was prepared. Then, the reduced coenzyme Q10 was added to the aqueous solution so that the final concentration of the solution was 0.05% by weight. […] In FIG. 4, each value is an average with n=2. […] The results of this test indicate that with a surfactant concentration of 0.1% by weight, the reduced coenzyme Q10 can be stably stored at 23° C. for about 1 month. […] Therefore, when preparing a solution or emulsion with a surfactant, the concentration of the surfactant used is decreased to prepare a solution which can be stored for a longer period of time. A solution or emulsion with 1% by weight or more of a surfactant can be used under conditions in which the solution or emulsion is prepared before use, or the solution or emulsion is stored for a short period or stored in an airtight condition such as a completely anaerobic condition.
compound,measurement,setting,value
COc1c(O)c(C)c(C/C=C(\C)CC/C=C(\C)CC/C=C(\C)CC/C=C(\C)CC/C=C(\C)CC/C=C(\C)CC/C=C(\C)CC/C=C(\C)CC/C=C(\C)CCC=C(C)C)c(O)c1OC [reduced coenzyme Q10],period of stable storage,surfactant (Tween 80 or HCO 60) concentration 0.1% by weight,about 1 month
same,period of stable storage,surfactant (Tween 80 or HCO 60) concentration 1% by weight,1 week
same,oxidation after the stable period (in words),"surfactant concentration 1% by weight, after 1 week of air storage at 23° C.",rapidly oxidized
